Data from patent publication US20250326772A1, “MRGPRX2 ANTAGONISTS, PHARMACEUTICAL COMPOSITION INCLUDING MRGPRX2 ANTAGONIST, AND METHOD OF TREATING MRGPRX2-MEDIATED DISEASE OR DISORDER” (KYORIN PHARMACEUTICAL CO., LTD., priority 2024, published 2025).
pIC50: −log10 of the molar value.

Biological target: T1, MRGPRX2 (Homo sapiens, UniProt Q96LB1)
T1 sequence (Q96LB1 1-330): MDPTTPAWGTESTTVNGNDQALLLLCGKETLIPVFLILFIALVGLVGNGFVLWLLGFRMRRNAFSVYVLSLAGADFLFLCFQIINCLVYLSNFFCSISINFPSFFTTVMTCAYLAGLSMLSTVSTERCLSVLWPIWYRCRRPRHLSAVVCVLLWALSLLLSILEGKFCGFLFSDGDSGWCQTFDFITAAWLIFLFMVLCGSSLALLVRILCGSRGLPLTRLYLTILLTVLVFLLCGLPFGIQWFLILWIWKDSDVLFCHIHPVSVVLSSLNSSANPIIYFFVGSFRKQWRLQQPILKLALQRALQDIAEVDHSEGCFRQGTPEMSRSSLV
Assay: MRGPRX2 reporter cell assay (NFAT-RE luciferase, Substance P stimulation)
Assay type: cell-based
Settings: U2OS cells stably transfected with MRGPRX2 and NFAT-RE luciferase reporter; Substance P at EC80; class symbols
Method in brief: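 U2OS cells stably expressing MRGPRX2 and an NFAT-RE luc2P reporter, pre-incubated 30 min at 37° C with compound (0.5% DMSO), then stimulated with Substance P at EC80 for 6 h. Luminescence after ONE-GLO; percent inhibition fitted by four-parameter logistic to IC50.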

Row | pIC50 | SMILES
1 | > 8.00 | [2H]C([2H])([2H])Oc1ccc(C#N)c(-c2c(-c3cn(C)nc3C(F)F)[nH]c3ncccc23)c1 [EX. 381]
2 | > 8.00 | Cn1cc(-c2c(-c3c(C(F)F)nn4c3OC[C@@H](OCCNS(C)(=O)=O)C4)[nH]c3ncccc23)c(OC(F)F)n1 [EX. 536]
3 | > 8.00 | COc1ccc(C#N)c(-c2c(-c3c(C(F)F)nn4c3OC[C@@H](N)C4)[nH]c3ncccc23)c1 [EX. 363]
4 | > 8.00 | O[C@@H]1COc2c(-c3[nH]c4ncccc4c3-c3cccnc3OC(F)F)c(C(F)F)nn2C1 [EX. 454]
5 | > 8.00 | Cn1cc(-c2c(-c3c(C(F)F)nn4c3OC[C@@H](NS(=O)(=O)CCCO)C4)[nH]c3ncccc23)c(OC(F)F)n1 [EX. 581]
6 | 7.00 to 8.00 | FC(F)Oc1nocc1-c1c(-c2c(C(F)F)nn3c2OCCC3)[nH]c2ncccc12 [EX. 407]
7 | > 8.00 | COC(=O)N(C)[C@@H]1COc2c(-c3[nH]c4ncccc4c3-c3cn(C)nc3OC(F)F)c(C(F)F)nn2C1 [EX. 578]
8 | > 8.00 | Cc1nn2c(c1-c1[nH]c3ncccc3c1-c1cn(C)nc1OC(F)F)OCCC2 [EX. 421, 3-(3-(3-(difluoromethoxy)-1-methyl-1H-pyrazol-4-yl)-1H-pyrrolo[2,3-b]pyridin-2-yl)-2-methyl-6,7-dihydro-5H-pyrazolo[5,1-b] [1,3]oxazine]
9 | > 8.00 | N#Cc1ccccc1-c1c(-c2c(CF)nn3c2OCCC3)[nH]c2ncccc12 [EX. 271]
10 | > 8.00 | Cn1cc(-c2c(-c3c(C(F)F)nn4c3OC[C@@H](NC(=O)[C@H]3C[C@H](O)C3)C4)[nH]c3ncccc23)c(OC(F)F)n1 [EX. 565]
11 | > 8.00 | COc1ccc(C#N)c(-c2c(-c3c[nH]nc3C(F)F)[nH]c3ncccc23)c1 [EX. 96]
12 | > 8.00 | COc1ncccc1-c1c(-c2c(C(F)F)nn3c2OCCC3)[nH]c2ncccc12 [EX. 429, 2-(difluoromethyl)-3-(3-(2-methoxypyridin-3-yl)-1H-pyrrolo[2,3-b]pyridin-2-yl)-6,7-dihydro-5H-pyrazolo[5,1-b] [1,3]oxazine]
13 | > 8.00 | CNC(=O)O[C@@H]1COc2c(-c3[nH]c4ncccc4c3-c3cn(C)nc3OC(F)F)c(C(F)F)nn2C1 [EX. 540]
14 | > 8.00 | Cc1ccc(C#N)c(-c2c(-c3cn(C)nc3C(F)F)[nH]c3ncccc23)c1 [EX. 99]
15 | 6.00 to 7.00 | N#Cc1cccnc1-c1c(-c2c(C(F)F)nn3c2OCCC3)[nH]c2ncccc12 [EX. 413]
16 | > 8.00 | FC(F)c1nn2c(c1-c1[nH]c3ncccc3c1C1=CCCCC1)OCCC2 [EX. 430]
17 | > 8.00 | COC(=O)CO[C@@H]1COc2c(-c3[nH]c4ncccc4c3-c3cn(C)nc3OC(F)F)c(C(F)F)nn2C1 [EX. 530]
18 | > 8.00 | C[C@@]1(N)COc2c(-c3[nH]c4ncccc4c3-c3cccnc3OC(F)F)c(C(F)F)nn2C1 [EX. 490]
19 | > 8.00 | COc1ccc(C#N)c(-c2c(-c3c(C(F)F)nn4c3OC[C@H](O)C4)[nH]c3ncccc23)c1 [EX. 368]
20 | > 8.00 | Cc1ccc(C#N)c(-c2c(-c3c[nH]nc3OC(F)F)[nH]c3ncccc23)c1 [EX. 158]
21 | > 8.00 | Cn1cc(-c2c(-c3c(C(F)F)nn4c3OC[C@@H](NC(=O)[C@@H]3CC3(F)F)C4)[nH]c3ncccc23)c(OC(F)F)n1 [EX. 552]
22 | > 8.00 | Cc1ccc(C#N)c(-c2c(-c3c[nH]nc3C(F)F)[nH]c3ncccc23)c1 [EX. 101]
23 | > 8.00 | Cn1cc(-c2[nH]c3ncccc3c2-c2ccccc2C#N)c(C(F)(F)F)n1 [EX. 128]
24 | > 8.00 | Cc1cc(-c2c(-c3c(C(F)F)nn4c3OCCCC4)[nH]c3ncccc23)c(C#N)s1 [EX. 452]
25 | > 8.00 | COc1ccc(C#N)c(-c2c(-c3cc(F)ccc3OC)[nH]c3ncccc23)c1 [EX. 107, 2-(2-(5-fluoro-2-methoxyphenyl)-1H-pyrrolo[2,3-b]pyridin-3-yl)-4-methoxybenzonitrile]
26 | > 8.00 | Cn1cc(-c2[nH]c3ncccc3c2-c2cc(F)ccc2C#N)c(C(F)F)n1 [EX. 300]

Row | SMILES | pIC50
27 | COc1ccc(F)c(-c2c(-c3cc(F)ccc3OC)[nH]c3ncccc23)c1 [EX. 323] | > 8.00

Tested on: humanized mice (NOG-hGM-CSF/hIL-3 Tg mice)
Assay: Evans blue vascular permeability assay ((R)-Zinc3573-induced, ear)
Assay type: in vivo
Settings: 10 mg/kg orally, 30 min before intradermal (R)-Zinc3573 3 μM into the ear; Evans blue dye; mean and standard error of mean
Experimental: Experimental Example 2: Evans Blue Vascular Permeability Assay
Twenty-five to twenty-six-week-old humanized mice (NOG-hGM-CSF/hIL-3 Tg mice at 17-18 weeks after transplantation of human umbilical cord blood-derived CD34+ cells; Central Institute for Experimental Animals) were anesthetized with isoflurane and injected intravenously with 200 μL of 0.5% Evans blue (cat. no. 056-04061; FUJIFILM Wako Pure Chemical Corporation). Subsequently, vehicle (0.5w/v % Methyl Cellulose) or 10 mg/kg of EX.381 were orally administered. After 30 minutes, animals were anesthetized with isoflurane and injected intradermally with 10 μL of (R)-Zinc3573 ((R)-Zinc; 3 μM, cat. no. SML1699; Sigma-Aldrich) into the right ear or with saline (0.1% DMSO) into the left ear as a control. Fifteen minutes after intradermal injection, animals were sacrificed and the ears were collected in 1.5 mL tubes. Evans blue dye was extracted from the tissue by adding 150 μL of N, N-dimethyl formamide (cat. no. 04096-34; nacalai tesque) for 12 hours at 55° C. […] The plate was read at 620 nm and 740 nm on a plate reader and the Evans blue dye concentration in each sample was determined by a standard curve using corrected absorbance (corrected absorbance=A620-A740). […] Data is expressed as mean and standard error of mean. […]

Row | SMILES | Inhibition % [%]
28 | [2H]C([2H])([2H])Oc1ccc(C#N)c(-c2c(-c3cn(C)nc3C(F)F)[nH]c3ncccc23)c1 [EX. 381] | 76.1 ± 12.1
